These results are taken from patent US10472380B2, “Platinum compounds having a heterocycle ligand, nanoparticles, and uses thereof” (PLACON THERAPEUTICS, INC., priority 2013, dated 2019).

One assay has as its system A549 cells. Nature of the assay: DNA platination in cells, DNA extracts analyzed by GFAA. As to conditions: 60 μM, 2 hours at 37° C. In kind it is cell-based. As for the experimental part: 5×10^6 A549 cells were received in tubes from Nobel Life Sciences in 10% FBS, 5% DMSO. Upon thawing, cells were washed with RPMI to remove the DMSO. […] Cells were then lysed and applied to a DNEasy™ DNA purification kit. The resulting DNA extracts were then analyzed by GFAA.

A further assay relates to calf thymus DNA. As to conditions: general statement on classic platinum agents; cited from earlier work.
The next assay deals with A549 tumor cell line. Put plainly: CellTiter-Glo cell viability assay in A549 tumor cell line. In kind it is cell-based. The settings on record: CellTiter-Glo luminescence. As for the experimental part: The cell suspension was transferred to a centrifuge tube and centrifuged at 800-1000 rpm for 3-5 minutes.
The lyophilized CellTiter-Glo substrate was equilibrated to room temperature prior to use.
The contents were mixed for 2 minutes on an orbital shaker to induce cell lysis.
On the technique in general: In ATP-based viability assays light output follows the ATP content of the culture.

Regarding `N.N.[Cl][Pt][Cl]` [Cisplatin], the “DNA platination, % of Cisplatin standard” value in the assay on A549 cells is 100%. Also, in the assay on calf thymus DNA, the “DNA associated platinum in this type of experiment” value was “high degree of DNA associated platinum”. As for “Di-1,1,3,3-tetramethylbutylcarbamate, ammonia quinoplatinium (II) [Compound 19]”, 4.3 µM corresponded to half-maximal inhibition with A549 tumor cell line (IC50). This lies in the single-digit micromolar range.
